Measured values: PMC3201017, “Modification of the loops in the ligand-binding site turns avidin into a steroid-binding protein” (BMC Biotechnology, 2011)
Counter-ions that a name gives are not always drawn.

Assays:
[1] = molecular target: T1, sbAvd-2 (steroid-binding avidin mutant) (Gallus gallus, UniProt P02701, D37R/L38M/G39N/S40H/T59A/A60T/T62N); test: SPR competition on testosterone-BSA chip, […] inhibitor
T1 construct: gene AVD; full avidin core, homotetramer, produced in E. coli

[2] = molecular target: T2, sbAvd-1 (steroid-binding avidin mutant) (Gallus gallus, UniProt P02701, D37R/L38M/G39N/S40H); test: as above
T2 construct: gene AVD; full avidin core, homotetramer, produced in E. coli

[3] = molecular target: T2, sbAvd-1 (steroid-binding avidin mutant); test: microplate binding to immobilized HSA-conjugated progesterone
[4] = molecular target: T1, sbAvd-2 (steroid-binding avidin mutant); test: as above
[5] = molecular target: the molecule itself; test: SEC; FPLC gel-filtration, Superdex 200 10/300 GL, calibrated with a molecular-mass standard; 20 mM sodium phosphate pH 7.4, 1 M NaCl, 20 mM imidazole; 90-193 μg protein in 500 μl

`C[C@]12CC[C@H](OS(=O)(=O)O)CC1=CC[C@@H]1[C@@H]2CC[C@]2(C)C(=O)CC[C@@H]12` [DHEAS, dehydroepiandrosterone sulfate] was tested. Which “SPR competition on testosterone-BSA chip, 50 μM inhibitor” value [1] did it give?
Its value is “The binding of sbAvd-2 to testosterone was found to be most efficiently inhibited by testosterone and DHEAS”.

What about the “SPR competition on testosterone-BSA chip, 50 μM inhibitor” value [2] of the same molecule?
The value was “SbAvd-1 was found to be cross-reactive with androgens highly similar to testosterone (DHEAS and androstenedione)”.

For `CC(=O)[C@H]1CC[C@H]2[C@@H]3CCC4=CC(=O)CC[C@]4(C)[C@H]3CC[C@]12C` [PRO, progesterone], which “microplate binding to immobilized HSA-conjugated progesterone” value [3] is on record?
The value was “sbAvd-1 also binds other steroid hormones, such as progesterone and DHEAS”.

What about the “microplate binding to immobilized HSA-conjugated progesterone” value [4] of the same molecule?
The value was “these modified Avds showed clear binding to testosterone and progesterone”.

B1: steroid-binding avidin mutant sbAvd-1 (designed binder)
chain: ARKCSLTGKWTNRMNHNMTIGAVNSRGEFTGTYITAVTATSNEIKESPLHGTQNTINKRTQPTFGFTVNWKFSESTTVFTGQCFIDRNGKEVLKTMWLLRSSVNDIGDDWKATRVGINIFTRLRTQKE
notes: chicken avidin (Avd) with the loop between beta-strands 1 and 2 (N12, D13, L14, G15, S16) changed to N12, R13, M14, N15, H16; selected by phage display from the Avd L1,2 library; source: E. coli BL21-AI, pET101/D, secreted with the OmpA signal of Bordetella avium, purified (Ni-NTA)
With B1 as the molecule, how does the “stoichiometry N” value [5] read?
Its value is 4.

B2: steroid-binding avidin mutant sbAvd-2 (designed binder)
chain: ARKCSLTGKWTNRMNHNMTIGAVNSRGEFTGTYIATVNATSNEIKESPLHGTQNTINKRTQPTFGFTVNWKFSESTTVFTGQCFIDRNGKEVLKTMWLLRSSVNDIGDDWKATRVGINIFTRLRTQKE
notes: selected by phage display from the sbAvd-1 L3,4 library; source: E. coli BL21-AI, pET101/D, secreted with the OmpA signal of Bordetella avium, purified (Ni-NTA)
B2 was tested. Which “stoichiometry N” value [5] did it give?
The value was 4.
